Results on two compounds are retold here after patent US12178808B2, “Amorphous solid dispersion comprising 6-(1-acryloylpiperidin-4-yl)-2-(4-phenoxyphenyl)nicotinamide” (BEIJING INNOCARE PHARMA TECH CO., LTD., priority 2018, dated 2024).

≈ marks a conversion by molar mass, not a printed value.

As usually defined, the solubility is the dissolved amount per volume that the medium holds. A higher solubility goes with a readily soluble substance. One may read the bioavailability as the share of a dose that reaches the circulation, judged against a reference dose that is usually intravenous. Read a high bioavailability as much systemic uptake.

Series [1] is described as follows: Glass transition temperature by DSC. Type of series: physicochemical. Conditions: DSC 0 to 180° C. at 10° C./min. Here is the method:
Accurately weighted samples (containing 5 mg of Compound I. see Table 3) were prepared according to the protocols of Examples 3 and 4, except varying the polymer and the drug amount. The examples were each placed in a DSC pan (TA Instruments), which was then sealed and placed in a TA Instruments Q2000. The pan was heated at 105° C. for 3 minutes and then rapidly cooled to 0° C. for 1 minute. The DSC analysis was carried out between 0 to 180° C. at a rate of 10° C./min.
(In general: DSC measures the heat that a sample takes up or gives off during a temperature scan.)

Series [2] is classed as physicochemical. Conditions: 24 h.
Series [3] can be described thus: Dissolution in fasted-state simulated intestinal fluid (FaSSIF). Type of series: physicochemical. Here is the method: 10 mg of accurately weighted samples of Type A and Type F, and 50 mg of HPMCAS-20-SDD (ASD with 20% drug loading made via spray-drying dispersion, see Example 3) were each added to 20 mL of fasted-state simulated intestinal fluid (FaSSIF) solution (pH 6.5) in a 50-mL centrifuge tube. The tube was placed in a shaker and kept shaking with 100 rpm at 37° C. At different time intervals (10, 30, 60, 120, 240 min), 350 μL suspension was removed and centrifuged at 13,000 rpm for 3 minutes to give a clear solution that was then analyzed by HPLC.
Samples of HPMCAS-20-SDD, HPMCAS-40-SDD, HPMCAS-60-SDD, PVPVA-20-HME were tested for dissolution according to the protocols of Example 5.

Series [4] can be described thus: Bioavailability of Type F crystalline form. Conditions: in vivo. The text has this:
Type F is a stable crystalline form and is useful as an active pharmaceutical ingredient (API) for a pharmaceutical formulation. However, its dissolution is slow and bioavailability is low (20%).

`C=CC(=O)N1CCC(c2ccc(C(N)=O)c(-c3ccc(Oc4ccccc4)cc3)n2)CC1` [Type A, 6-(1-acryloylpiperidin-4-yl)-2-(4-phenoxyphenyl)nicotinamide] showed a Tg in series [1] of 69.4 °C. Moreover, the solubility in series [2] was determined as 13 µg/mL (≈ 30.4 µM). Besides, the “dissolution in FaSSIF (comparison)” value in series [3] (FaSSIF pH 6.5, 37° C., 100 rpm, 10-240 min) is on record as “better than Type F's”.

The compound `C=CC(=O)N1CCC(c2ccc(C(N)=O)c(-c3ccc(Oc4ccccc4)cc3)n2)CC1` [Type F, 6-(1-acryloylpiperidin-4-yl)-2-(4-phenoxyphenyl)nicotinamide] returned a bioavailability in series [4] of 20%. Besides, the solubility in series [2] stood at 4 µg/mL (≈ 9.36 µM). Besides, the dissolution result in series [3] (general statement on the crystalline form) was “slow”.
